Test system: KRAS patient-derived spheroids with HUVEC/MSC, viability
Experiment: Anticancer human tumor 323965-272-R-J2-PDC patient-derived pancreatic carcinoma cell line growth inhibition [KRAS2]
Details: for viability, T/C: stronger effect = lower value
Summary of the method: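 Combination screen of spheroid viability in tumor-cell co-cultures with endothelial (HUVEC) and mesenchymal stem cell stroma. Each agent was tested in half-log dilutions, topping at clinical Cmax or at 10 microM without a known Cmax.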

[1] = curve of first compound, second compound 0.1 µM
[2] = curve of first compound, second compound 0.316 µM
[3] = curve of first compound, second compound 1 µM
[4] = curve of first compound, second compound 3.16 µM
[5] = curve of first compound, second compound 10 µM
[6] = second compound 0.1 µM, first compound 0.0316 µM
[7] = second compound 0.1 µM, first compound 0.1 µM
[8] = second compound 0.1 µM, first compound 0.316 µM
[9] = second compound 0.1 µM, first compound 1 µM
[10] = second compound 0.1 µM, first compound 3.16 µM
[11] = second compound 0.1 µM, first compound 10 µM
[12] = second compound 0.316 µM, first compound 0.0316 µM
[13] = second compound 0.316 µM, first compound 0.1 µM
[14] = second compound 0.316 µM, first compound 0.316 µM
[15] = second compound 0.316 µM, first compound 1 µM
[16] = second compound 0.316 µM, first compound 3.16 µM
[17] = second compound 0.316 µM, first compound 10 µM
[18] = second compound 1 µM, first compound 0.0316 µM
[19] = second compound 1 µM, first compound 0.1 µM
[20] = second compound 1 µM, first compound 0.316 µM
[21] = second compound 1 µM, first compound 1 µM
[22] = second compound 1 µM, first compound 3.16 µM
[23] = second compound 1 µM, first compound 10 µM
[24] = second compound 3.16 µM, first compound 0.0316 µM
[25] = second compound 3.16 µM, first compound 0.1 µM
[26] = second compound 3.16 µM, first compound 0.316 µM
[27] = second compound 3.16 µM, first compound 1 µM
[28] = second compound 3.16 µM, first compound 3.16 µM
[29] = second compound 3.16 µM, first compound 10 µM
[30] = second compound 10 µM, first compound 0.0316 µM
[31] = second compound 10 µM, first compound 0.1 µM
[32] = second compound 10 µM, first compound 0.316 µM
[33] = second compound 10 µM, first compound 1 µM
[34] = second compound 10 µM, first compound 3.16 µM
[35] = second compound 10 µM, first compound 10 µM
[36] = second compound 0.1 µM, first compound 0.000316 µM
[37] = second compound 0.1 µM, first compound 0.001 µM
[38] = second compound 0.1 µM, first compound 0.00316 µM
[39] = second compound 0.1 µM, first compound 0.01 µM
[40] = second compound 0.316 µM, first compound 0.000316 µM
[41] = second compound 0.316 µM, first compound 0.001 µM
[42] = second compound 0.316 µM, first compound 0.00316 µM
[43] = second compound 0.316 µM, first compound 0.01 µM
[44] = second compound 1 µM, first compound 0.000316 µM
[45] = second compound 1 µM, first compound 0.001 µM
[46] = second compound 1 µM, first compound 0.00316 µM
[47] = second compound 1 µM, first compound 0.01 µM
[48] = second compound 3.16 µM, first compound 0.000316 µM
[49] = second compound 3.16 µM, first compound 0.001 µM
[50] = second compound 3.16 µM, first compound 0.00316 µM
[51] = second compound 3.16 µM, first compound 0.01 µM
[52] = second compound 10 µM, first compound 0.000316 µM
[53] = second compound 10 µM, first compound 0.001 µM
[54] = second compound 10 µM, first compound 0.00316 µM
[55] = second compound 10 µM, first compound 0.01 µM
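Further: spheroids exposed to agents for 7 days.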
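Wherever viability, T/C is given: 100% = DMSO vehicle control viability.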

SMILES	IC50 [1]	IC50 [2]	IC50 [3]	IC50 [4]	IC50 [5]	viability, T/C [6]	viability, T/C [7]	viability, T/C [8]	viability, T/C [9]	viability, T/C [10]	viability, T/C [11]	viability, T/C [12]	viability, T/C [13]	viability, T/C [14]	viability, T/C [18]	viability, T/C [19]	viability, T/C [24]	viability, T/C [25]	viability, T/C [30]	viability, T/C [31]	other results
CC1(C)CCC(CN2CCN(c3ccc(C(=O)NS(=O)(=O)c4ccc(NCC5CCOCC5)c([N+](=O)[O-])c4)c(Oc4cnc5[nH]ccc5c4)c3)CC2)=C(c2ccc(Cl)cc2)C1 + CC1OCC2(CCN(c3cnc(Sc4ccnc(N)c4Cl)c(N)n3)CC2)C1N	1380 nM	1070 nM	< 31.6 nM	< 31.6 nM	< 31.6 nM	81.6%	74.7%	78%	65.3%	10.1%	3.29%	56.9%	63.4%	49.9%	43.9%	45.9%	37.3%	32.7%	24.6%	24.5%	viability, T/C [15]: 53%; viability, T/C [16]: 6.85%; viability, T/C [17]: 2.39%; viability, T/C [20]: 40.5%; viability, T/C [21]: 34%; viability, T/C [22]: 5.15%; viability, T/C [23]: 1.19%; viability, T/C [26]: 26.6%; viability, T/C [27]: 20.2%; viability, T/C [28]: 4.11%; viability, T/C [29]: 1.21%; viability, T/C [32]: 25.4%; viability, T/C [33]: 20.9%; viability, T/C [34]: 2.63%; viability, T/C [35]: 0.27%
CC(C)n1nc(-c2ccc3oc(N)nc3c2)c2c(N)ncnc21 + CC1OCC2(CCN(c3cnc(Sc4ccnc(N)c4Cl)c(N)n3)CC2)C1N	1.23 nM	< 0.316 nM	< 0.316 nM	< 0.316 nM	< 0.316 nM	18.1%	13.7%	–	–	–	–	12.4%	5.7%	–	7.51%	2.03%	4.33%	1.32%	1.96%	0.92%	viability, T/C [36]: 77%; viability, T/C [37]: 52.3%; viability, T/C [38]: 36.2%; viability, T/C [39]: 26.7%; viability, T/C [40]: 46.2%; viability, T/C [41]: 42.1%; viability, T/C [42]: 31.8%; viability, T/C [43]: 21%; viability, T/C [44]: 47.9%; viability, T/C [45]: 35.9%; viability, T/C [46]: 26.8%; viability, T/C [47]: 15.6%; viability, T/C [48]: 36.2%; viability, T/C [49]: 27%; viability, T/C [50]: 21.4%; viability, T/C [51]: 10.4%; viability, T/C [52]: 28.1%; viability, T/C [53]: 22.7%; viability, T/C [54]: 15.6%; viability, T/C [55]: 6.84%
CNCc1ccccc1-c1csc(C(C)Nc2nc(C)nc3cc(OC)c(OC)cc23)c1 (centres undefined)	–	–	–	–	–	–	–	–	–	–	–	–	–	–	–	–	–	–	–	–	viability, T/C (compound 0.316 µM): 89.6% [middle of 16 runs]; viability, T/C (compound 1 µM): 89.2% [middle of 16 runs]; IC50 (compound alone, run of 08/26/2021): 5.39 µM [middle of 4 runs]; IC50 (compound alone, run of 09/02/2021): 4.96 µM [middle of 6 runs]
CC(C)n1nc(-c2ccc3oc(N)nc3c2)c2c(N)ncnc21 + COc1cc2nc(C)nc(NC(C)c3cc(N)cc(C(F)(F)F)c3)c2cc1OC1CCOC1	1.83 nM	0.955 nM	0.736 nM	0.769 nM	1.41 nM	19%	14.5%	–	–	–	–	17.4%	15.7%	–	16.7%	14%	12.9%	11.8%	9.07%	8.86%	viability, T/C [36]: 67.1%; viability, T/C [37]: 60.1%; viability, T/C [38]: 40.8%; viability, T/C [39]: 26.4%; viability, T/C [40]: 64.5%; viability, T/C [41]: 48.2%; viability, T/C [42]: 37.1%; viability, T/C [43]: 23.8%; viability, T/C [44]: 58.1%; viability, T/C [45]: 47.6%; viability, T/C [46]: 33.1%; viability, T/C [47]: 24.8%; viability, T/C [48]: 54.4%; viability, T/C [49]: 49.4%; viability, T/C [50]: 30.2%; viability, T/C [51]: 17.7%; viability, T/C [52]: 58.5%; viability, T/C [53]: 60.2%; viability, T/C [54]: 32.3%; viability, T/C [55]: 18.4%
CC1(C)CCC(CN2CCN(c3ccc(C(=O)NS(=O)(=O)c4ccc(NCC5CCOCC5)c([N+](=O)[O-])c4)c(Oc4cnc5[nH]ccc5c4)c3)CC2)=C(c2ccc(Cl)cc2)C1 + COc1cc2nc(C)nc(NC(C)c3cc(N)cc(C(F)(F)F)c3)c2cc1OC1CCOC1	1520 nM	1570 nM	1290 nM	1340 nM	591 nM	76.6%	80.4%	67.8%	72.2%	11.2%	2.78%	67.7%	77.3%	75.2%	76.2%	84.2%	87.4%	80.6%	80.7%	79.9%	viability, T/C [15]: 71.5%; viability, T/C [16]: 16.8%; viability, T/C [17]: 3.87%; viability, T/C [20]: 84.3%; viability, T/C [21]: 60.3%; viability, T/C [22]: 12.5%; viability, T/C [23]: 2.67%; viability, T/C [26]: 84.7%; viability, T/C [27]: 65.1%; viability, T/C [28]: 6.04%; viability, T/C [29]: 2.28%; viability, T/C [32]: 61.1%; viability, T/C [33]: 41.6%; viability, T/C [34]: 3.41%; viability, T/C [35]: 1.41%
COc1cc2nccc(Oc3ccc(NC(=O)C4(C(=O)Nc5ccc(F)cc5)CC4)cc3)c2cc1OC + CNCc1ccccc1-c1csc(C(C)Nc2nc(C)nc3cc(OC)c(OC)cc23)c1	> 10000 nM	> 10000 nM	> 10000 nM	4240 nM	< 31.6 nM	91.7%	99.3%	110%	101%	85.2%	87.2%	87.2%	88.7%	100%	105%	99%	95.4%	91.8%	0.33%	0.3%	viability, T/C [15]: 93.2%; viability, T/C [16]: 91.4%; viability, T/C [17]: 82%; viability, T/C [20]: 102%; viability, T/C [21]: 101%; viability, T/C [22]: 92.6%; viability, T/C [23]: 72.7%; viability, T/C [26]: 92.2%; viability, T/C [27]: 91.6%; viability, T/C [28]: 66.5%; viability, T/C [29]: 1.54%; viability, T/C [32]: 0.27%; viability, T/C [33]: 0.75%; viability, T/C [34]: 0.33%; viability, T/C [35]: 0.34%

— PubChem BioAssay AID1963869 (Molecular Pharmacology Branch, DTP, NCI, 2024)
